Laboratory results as given in US8450308B2 (Vitae Pharmaceuticals, Inc., priority 2008, dated 2013).

Experiments:
[1] = BACE cell assay: soluble Amyloid Beta 1-40 (Aβ 1-40) in culture media of H4-APPsw cells; assay type: cell-based; details: in vitro cell activity, H4-APPsw cells, secreted Aβ 1-40, overnight treatment; read-out: IC50
Method: H4 neuroglioma cell line that stably expresses Amyloid Precursor Protein (APP) containing the KM-NL Swedish mutation (H4-APPsw) was generated. For the assay, cells are treated overnight in the presence of inhibitor and the culture media are subjected to ELISA analysis of soluble Amyloid Beta 1-40 (Aβ 1-40).
H4 neuroglioma cell line was cultured in DMEM with 10% FBS and 1% penicillin/streptomycin (Culture Medium) at 37° C., 5% CO2. […] 24 hrs after transfection, the cells were replaced into three new plates (150 mm) in fresh Culture Medium with 250 ug/ml Zeocin. […] The levels of APPsw expression were analyzed by immunoblotting and the production of Aβ 1-40 was detected by ELISA of culture supernatants. The selected clones are maintained in Culture Medium with 250 μg/ml Zeocin and routinely split in 3-4 days to maintain 20-80% confluence.
Split cells. Split H4-APPsw cells in Culture Medium and culture overnight such that cells will be ˜80% confluent next morning.
Create Compound Dilution Plate. After determining the desired final concentration of compound to be tested, create a 500× dilution plate. Add DMSO, but not inhibitor, to each well of Column 1. […] Add compounds of interest at 500× desired final concentration to wells A3-A10. Add DMSO, but not inhibitor, to each well of Columns 11 and 12. Dilute contents of Row A 1:3 in Row B. then continue through Rows C—H.
Create Media Plate. To create a 2× solution of compound in media, add 996 μL Culture Medium to each well of a 96-well 2 ml deep well plate (Media Plate) in biosafety hood. Add 4 μL 5 mM control compound to Media Plate wells A1-D1 for determination of full inhibition.
Add media to Cell Plate. With a multichannel pipettor, mix each well of Media Plate several times to insure homogeneity. Add 100 μL of mixture to Black polymer bottom P-D-L plates. Next, place Medium Plate and Cell Plate in the incubator.
Add cells to Cell Plate. Trypsinize and count H4-APPsw cells. Dilute cells 6×10^5 cells/ml in Culture Medium and remove Cell Plate from incubator. Vortex cells to homogeneity, then using a multichannel repeating pipettor, add 100 μL cell suspension to Cell Plate, adding cells from Row H to Row A. Place Cell Plate in incubator.
Change media in Cell Plate. After 5 h, check Cell Plate by microscope to insure cells are attached. In culture hood, remove media from Cell Plate using multichannel repeating pipettor. Add 100 μl Culture Medium to each well. Remove Media Plate from incubator and mix with pipettor as previous. Add 100 μl from each well of Media Plate to corresponding well in Cell Plate. Place Cell Plate in incubator overnight.
Perform ELISA to determine levels of secreted Aβ 1-40. After 16 h incubation, spin Cell Plate for 8 min at 1200 rpm. The primary reading of Aβ 1-40 levels is done using PerkinElmer AlphaLISA technology. Follow the manufacturer's protocol for performing AlphaLISA in a white ½ area Optiwell plate using Row 12 for peptide standard (1:2 dilutions, starting at 15 ng/ml). Data are acquired using PerkinElmer Fusion-Alpha FP-HT, Alpha protocol (Count Time 0.6 s, Count Time Ratio 30%:70%).
Export data from Fusion using Columnar Report format into a separate file for each plate. Upload data into Activity Base using RIA-DOSE-RESPONSE protocol (Version 1). Data from at least eight doses were fitted to a four parameter logistical model using XLfit software to determine potency.

[2] = target: T1, truncated human beta-secretase (residues 1-458, His6-tagged at the C-terminus) (Homo sapiens, UniProt P56817); test: BACE fluorescence quench assay; assay type: biochemical; details: in vitro enzyme activity, BACE fluorescence assay, pH 4.5; read-out: IC50
T1 construct: truncated human beta-secretase (residues 1-458, His6-tagged at the C-terminus); His6 (C); made in house; host or cells: insect cells D. melanogaster S2 (baculovirus expression system (so in the source))
T1 sequence (P56817 22-458): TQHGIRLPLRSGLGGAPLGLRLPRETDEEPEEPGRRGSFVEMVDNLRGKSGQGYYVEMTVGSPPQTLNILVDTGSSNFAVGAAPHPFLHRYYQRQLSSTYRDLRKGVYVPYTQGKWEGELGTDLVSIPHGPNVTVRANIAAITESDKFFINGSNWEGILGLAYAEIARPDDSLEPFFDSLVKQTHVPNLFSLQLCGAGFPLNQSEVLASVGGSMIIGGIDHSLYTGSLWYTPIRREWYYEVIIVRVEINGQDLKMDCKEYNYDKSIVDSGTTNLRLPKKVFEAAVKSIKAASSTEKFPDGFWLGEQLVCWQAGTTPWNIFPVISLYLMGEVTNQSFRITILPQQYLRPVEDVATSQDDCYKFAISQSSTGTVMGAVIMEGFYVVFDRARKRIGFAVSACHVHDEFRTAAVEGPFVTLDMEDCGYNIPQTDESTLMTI

SMILES | IC50 [1] [µM] | IC50 [2] [µM]
COc1cccc2c1CCCC1(C2)CC2(N=C(N)N(C)O2)c2cc(Br)ccc2O1 (centres unmarked) [Compound 373] | 5 to 10 | 0.5 to 1
CN1OC2(CC3(CCc4ccccc4C3)Oc3ccc(-c4cccc(C#N)c4)cc32)N=C1N (centres unmarked) [Compound 324] | 5 to 10 | 0.1 to 0.5
CN1O[C@@]2(C[C@H](C3CCOc4ccccc43)Oc3ccc(-c4cccc(C#N)c4)cc32)N=C1N (some centres unmarked) [Compound 331] | 5 to 10 | 0.1 to 0.5
CN1O[C@]2(C[C@H]([C@H]3CCCOC3)Oc3ccc(-c4cc(F)cc(F)c4)cc32)N=C1N (racemic) [Compound 316, (±)-(2S,4R)-6-(3,5-difluorophenyl)-2′-methyl-2-((R)-tetrahydro-2H-pyran-3-yl)-2′H-spiro[chroman-4,5′-[1,2,4]oxadiazol]-3′-amine] | 5 to 10 | 0.1 to 0.5
CN1OC2(C[C@@H](C34CCC(CC3)OC4)Oc3ccc(-c4cccc(C#N)c4)cc32)N=C1N (some centres unmarked) [Compound 305] | 5 to 10 | 0.1 to 0.5
CN1OC2(C[C@H]([C@@H]3CCOC(C)(C)C3)Oc3ccc(-c4cc(F)cc(Cl)c4)cc32)N=C1N (some centres unmarked) [Compound 299] | 1 to 5 | 0.1 to 0.5
CN1OC2(CC3(CCCN(c4ccccc4)C3)Oc3ccc(-c4cccc(C#N)c4)cc32)N=C1N (centres unmarked) [Compound 355] | 5 to 10 | 0.5 to 1
CN1OC2(CC3(CCCc4ncccc43)Oc3ccc(-c4cccc(C#N)c4)cc32)N=C1N (centres unmarked) [Compound 320] | 1 to 5 | 0.1 to 0.5
CN1OC2(C[C@@]3(CC4CCC3OC4)Oc3ccc(-c4cccc(C#N)c4)cc32)N=C1N (single isomer, unassigned) [Compound 408] | 5 to 10 | 1 to 5
CN1O[C@]2(C[C@H]([C@H]3CCOC(C)(C)C3)Oc3ccc(-c4cccc(C#N)c4)cc32)N=C1N [Compound 293] | 1 to 5 | 0.1 to 0.5
CN1OC2(CC3(CCCc4ccccc4C3)Oc3ccc(C#CC4CCCC4)cc32)N=C1N (centres unmarked) [Compound 317] | 1 to 5 | 0.1 to 0.5
CC1CC[C@]2(CO1)C[C@]1(N=C(N)N(C)O1)c1cc(-c3cccc(Cl)c3)ccc1O2 (some centres unmarked) [Compound 303] | 1 to 5 | 0.1 to 0.5
CN1O[C@]2(C[C@H]([C@@H]3CCCOC3)Oc3ccc(-c4cc(F)cc(F)c4)cc32)N=C1N (racemic) [Compound 322, (2S,4R/2R,4S)-6-(3,5-difluorophenyl)-2′-methyl-2-((S/R)-tetrahydro-2H-pyran-3-yl)-2′H-spiro[chroman-4,5′-[1,2,4]oxadiazol]-3′-amine] | 5 to 10 | 0.1 to 0.5
CN1OC2(CC3(CCC(c4ccccc4)CC3)Oc3ccc(-c4cccc(C#N)c4)cc32)N=C1N (centres unmarked) [Compound 313] | 1 to 5 | 0.1 to 0.5
CN1OC2(C[C@H]([C@@H]3CCOC(C)(C)C3)Oc3ccc(-c4cccc(C#N)c4F)cc32)N=C1N (some centres unmarked) [Compound 306] | 1 to 5 | 0.1 to 0.5
CC1CC[C@]2(CO1)C[C@]1(N=C(N)N(C)O1)c1cc(-c3ccc(F)c(Cl)c3)ccc1O2 (some centres unmarked) [Compound 330] | 1 to 5 | 0.1 to 0.5
CN1OC2(CC3(CCCc4ccccc4C3)Oc3ccc(-c4cc(F)cc(Cl)c4)cc32)N=C1N (centres unmarked) [Compound 227] | 1 to 5 | 
CN1OC2(CC(C3CCCc4ccccc43)Oc3ccc(-c4cc(F)cc(C(F)(F)F)c4)cc32)N=C1N (centres unmarked) [Compound 269] | 5 to 10 | 
CN1O[C@@]2(C[C@H](C3CCCc4ccccc43)Oc3ccc(-c4ccc(F)c(C#N)c4)cc32)N=C1N (some centres unmarked) [Compound 221] | 1 to 5 | 
CN1OC2(CC(C3CCCc4ccccc43)Oc3ccc(-c4cc(Cl)cc(C#N)c4)cc32)N=C1N (centres unmarked) [Compound 208] | 1 to 5 | 
CN1OC2(CC(C3COCc4ccccc43)Oc3ccc(-c4cccc(C#N)c4)cc32)N=C1N (centres unmarked) [Compound 204] | 1 to 5 | 
CN1OC2(CC(C3CCCc4ccccc43)Oc3ccc(-c4cc(F)cc(C#N)c4)cc32)N=C1N (centres unmarked) [Compound 198] | 1 to 5 | 

Second part, the compound after the results:

IC50 [1] [µM] | IC50 [2] [µM] | SMILES
1 to 5 | 0.5 to 1 | CN1OC2(CC3(CCCc4ccccc4C3)Oc3ccc(Br)cc32)N=C1N (centres unmarked) [Compound 349]
1 to 5 | 1 to 5 | CN1OC2(CC3(CC4CCC3OC4)Oc3ccc(-c4cccc(C#N)c4)cc32)N=C1N (single isomer, unassigned) [Compound 379]
1 to 5 | 0.1 to 0.5 | CC1CC[C@]2(CO1)C[C@]1(N=C(N)N(C)O1)c1cc(-c3cc(F)cc(Cl)c3)ccc1O2 (some centres unmarked) [Compound 298]
1 to 5 | 0.1 to 0.5 | CN1OC2(CC(C3CCOC(C)(C)C3)Oc3ccc(-c4cccc(Br)c4)cc32)N=C1N (centres unmarked) [Compound 294]
0.1 to 0.5 | 0.1 to 0.5 | CN1C(=O)C2(CC3(CCCOC3)Oc3ccc(-c4cc(F)cc(Cl)c4)cc32)N=C1N (centres unmarked) [Compound 286]
0.1 to 0.5 | 0.1 to 0.5 | CN1C(=O)C2(CC3(CCCOC3)Oc3ccc(-c4cc(C#N)ccc4F)cc32)N=C1N (centres unmarked) [Compound 288]
0.1 to 0.5 | 0.1 to 0.5 | CN1C(=O)[C@@]2(C[C@]3(CCCOC3)Oc3ccc(-c4cc(F)cc(F)c4F)cc32)N=C1N [Compound 280]
0.1 to 0.5 | 0.1 to 0.5 | Cc1ccc(F)cc1-c1ccc2c(c1)[C@]1(C[C@]3(CCCOC3)O2)N=C(N)N(C)C1=O [Compound 287]
0.5 to 1 |  | CN1O[C@]2(C[C@@]3(CCCc4ccccc4C3)Oc3ccc(-c4cccc(C#N)c4)cc32)N=C1N [Compound 228]
0.1 to 0.5 |  | CN1C(=O)C2(C[C@H](C3CCOC(C)(C)C3)Oc3ccc(-c4cccc(F)c4)cc32)N=C1N (some centres unmarked) [Compound 241]
0.001 to 0.1 |  | CN1C(=O)C2(CC(C3CCOC(C)(C)C3)Oc3ccc(-c4cc(F)cc(C(F)(F)F)c4)cc32)N=C1N (centres unmarked) [Compound 195]
0.001 to 0.1 |  | CN1C(=O)C2(CC(C3CCOC(C)(C)C3)Oc3ccc(-c4cccc(OC(F)(F)F)c4)cc32)N=C1N (centres unmarked) [Compound 184]
0.1 to 0.5 |  | CN1C(=O)[C@@]2(C[C@]3(CCCOC3)Oc3ccc(-c4cc(F)cc(Cl)c4)cc32)N=C1N [Compound 215]
0.1 to 0.5 |  | CN1OC2(CC(C3CCCc4ccccc43)Oc3ccc(-c4cc(C#N)cc(C#N)c4)cc32)N=C1N (centres unmarked) [Compound 180]
0.1 to 0.5 |  | CN1C(=O)[C@@]2(C[C@]3(CCCOC3)Oc3ccc(-c4cccc(Cl)c4)cc32)N=C1N [Compound 224]
0.1 to 0.5 |  | CN1C(=O)[C@@]2(C[C@]3(CCCOC3)Oc3ccc(-c4cc(F)cc(C#N)c4)cc32)N=C1N [Compound 250]
0.001 to 0.1 |  | CN1OC2(CC3(CCCc4ccccc4C3)Oc3ccc(-c4cc(C#N)cc(C#N)c4)cc32)N=C1N (centres unmarked) [Compound 178]
0.001 to 0.1 |  | COc1cc(Cl)cc(-c2ccc3c(c2)[C@]2(C[C@]4(CCCOC4)O3)N=C(N)N(C)C2=O)c1 [Compound 214]
0.5 to 1 |  | C[C@@H]1CC[C@@]2(CO1)CC1(N=C(N)N(C)O1)c1cc(-c3cccc(C#N)c3)ccc1O2 (stereo partly drawn) [Compound 275, 3-(3″-amino-2″-methyl-4″,5″-dihydro-2″H-spiro(spiro(chroman-2,3′-[(2R,6R/2S,6S)-2,4,5,6-tetrahydro-6-methyl-pyran])-(4S/4S)-4,5″-[1,2,4]oxadiazole)-6-yl)benzonitrile]
0.001 to 0.1 |  | CN1C(=O)C2(CC(C3CCOC(C)(C)C3)Oc3ccc(-c4cc(C#N)cc(C(F)(F)F)c4)cc32)N=C1N (centres unmarked) [Compound 213]
0.5 to 1 |  | CC1CC[C@@]2(CO1)C[C@]1(N=C(N)N(C)O1)c1cc(-c3cccc(Cl)c3)ccc1O2 (some centres unmarked) [Compound 236]
0.5 to 1 |  | CN1C(=O)C2(CC(C3CCCOC3)Oc3ccc(-c4cccc(F)c4)cc32)N=C1N (centres unmarked) [Compound 273]
